pIC50, pKi: −log10 of the molar value.

In one test the target is Cyclin-dependent kinase 2 (Homo sapiens, UniProt P24941). In words: Binding affinity to CDK2 (unknown origin).
Compound `CC(C)(C)n1nc(-c2cccc(NC(=O)/C(C#N)=C/c3ccc(F)cc3)c2)c2c(=O)[nH]cnc21` gave a pKi of 5.54.

Regarding `CC(C)(C)n1nc(-c2cccc(NC(=O)/C(C#N)=C/C=C/c3ccccc3)c2)c2c(=O)[nH]cnc21`, the pKi is 5.20. Same read-out and setting: then `CC(C)(C)n1nc(-c2cccc(NC(=O)/C(C#N)=C/c3ccccc3Br)c2)c2c(=O)[nH]cnc21`, with 5.88; and `CC(C)(C)n1nc(-c2cccc(NC(=O)/C(C#N)=C/c3ccccc3)c2)c2c(=O)[nH]cnc21`, with 5.66. `CCCC/C=C(\C#N)C(=O)Nc1cccc(-c2nn(C(C)(C)C)c3nc[nH]c(=O)c23)c1` showed a pKi of 4.94. Still for that read-out and setting: then `CC(C)(C)n1nc(-c2cccc(NC(=O)/C(C#N)=C/c3cccc([N+](=O)[O-])c3)c2)c2c(=O)[nH]cnc21`, with 5.61; and `CC(C)(C)n1nc(-c2cccc(NC(=O)/C(C#N)=C/c3ccc([N+](=O)[O-])cc3)c2)c2c(=O)[nH]cnc21`, with 5.71; and `CC(C)(C)/C=C(\C#N)C(=O)Nc1cccc(-c2nn(C(C)(C)C)c3nc[nH]c(=O)c23)c1`, with 5.59. Same read-out and setting: then `CC(C)(C)n1nc(-c2cccc(NC(=O)/C(C#N)=C/c3ccc(O)cc3)c2)c2c(=O)[nH]cnc21`, with 6.28. On to `CC(C)(C)n1nc(-c2cccc(NC(=O)/C(C#N)=C/c3cccc(C(F)(F)F)c3)c2)c2c(=O)[nH]cnc21`, for which the negative-log Ki (pKi) was 5.25. On the same count and under the same terms, then `CC(C)(C)n1nc(-c2cccc(NC(=O)/C(C#N)=C/c3ccccc3[N+](=O)[O-])c2)c2c(=O)[nH]cnc21`, with 4.91; and `CC(C)(C)n1nc(-c2cccc(NC(=O)/C(C#N)=C/c3cc([N+](=O)[O-])cc([N+](=O)[O-])c3)c2)c2c(=O)[nH]cnc21`, with 5.79. With `CC(C)(C)n1nc(-c2cccc(NC(=O)/C(C#N)=C/c3cccc(Br)c3)c2)c2c(=O)[nH]cnc21`, the pKi is 4.83.

Compound `CC(C)(C)n1nc(-c2cccc(NC(=O)/C(C#N)=C/c3ccc(Br)cc3)c2)c2c(=O)[nH]cnc21` had a pKi of 5.44. Compound `COc1ccc(/C=C(\C#N)C(=O)Nc2cccc(-c3nn(C(C)(C)C)c4nc[nH]c(=O)c34)c2)cc1` gave a negative-log Ki (pKi) of 5.01. `CC(C)(C)n1nc(-c2cccc(NC(=O)/C(C#N)=C/c3cccc(Cl)c3)c2)c2c(=O)[nH]cnc21` had a negative logarithm of the Ki (pKi) of 5.51. `CC(C)(C)n1nc(-c2cccc(NC(=O)/C(C#N)=C/c3ccccc3O)c2)c2c(=O)[nH]cnc21` had a pKi of 6.46. In the case of `CC(C)(C)n1nc(-c2cccc(NC(=O)/C(C#N)=C/c3ccc(C(=O)O)cc3)c2)c2c(=O)[nH]cnc21`, the pKi was 5.85. Compound `Cc1cc(NS(=O)(=O)c2ccc(Nc3n[nH]c4nc[nH]c(=O)c34)cc2)no1` gave a pKi of 5.32.

The next test deals with MCF7. Nature of the test: Antiproliferative activity against human MCF7 cells at 4 uM by CCK-8 assay. It counts as functional. (In general: Tetrazolium dyes change colour on reduction, which living cells bring about.)
Compound `CC(C)(C)n1nc(-c2cccc(NC(=O)/C(C#N)=C/c3ccccc3)c2)c2c(=O)[nH]cnc21` displayed an inhibition at 4 µM of 30%.

Another test concerns MCF7. Nature of the test: Antiproliferative activity against human MCF7 cells by CCK-8 assay. It is filed as functional, cell-based.
On to `CC(C)(C)n1nc(-c2cccc(NC(=O)/C(C#N)=C/c3ccccc3)c2)c2c(=O)[nH]cnc21`, for which the negative logarithm of the IC50 (pIC50) was 4.66. On the same count and under the same terms, in the case of `COc1cc([C@@H]2c3cc4c(cc3[C@@H](O[C@@H]3O[C@@H]5CO[C@@H](C)O[C@H]5[C@H](O)[C@H]3O)[C@H]3COC(=O)[C@H]23)OCO4)cc(OC)c1O` [ETOPOSIDE] it was 4.73.

In general, pKi refers to the negative decadic logarithm of the Ki, by convention in mol/L. What is called inhibition is the percentage by which the read-out fell short of the control. A lower inhibition goes with a weak effect. The term pIC50 denotes the IC50 on a negative log10 scale, so that one unit is a factor of ten.

Values taken from ChEMBL document CHEMBL5126571, “Development of pyrazolo[3,4-d]pyrimidin-4-one scaffold as novel CDK2 inhibitors: Design, synthesis, and biological evaluation” (Bioorg Med Chem Lett, 2022).
